Literature values, collected in article PMC11436104 (Toxins, 2024).

Test system: rat primary astrocytes
Settings: cited from earlier work

MC-LF
cytotoxicity in rat primary astrocytes: selective cytotoxicity
